# How the values were obtained:
# OVCAR-3 = assay: NCI60 one-dose screen (10 μM), Ovarian Cancer; assay type: cell-based; details: Homo sapiens; 10 μM; OVCAR-3, Ovarian Cancer; read-out: Growth percent rate
# HCT-116 = assay: NCI60 one-dose screen (10 μM), Colon Cancer; assay type: cell-based; details: Homo sapiens; 10 μM; HCT-116, Colon Cancer; read-out: Growth percent rate
# OVCAR-4 = assay: NCI60 one-dose screen (10 μM), Ovarian Cancer; assay type: cell-based; details: Homo sapiens; 10 μM; OVCAR-4, Ovarian Cancer; read-out: Growth percent rate
# RXF 393 = assay: NCI60 one-dose screen (10 μM), Renal Cancer; assay type: cell-based, human; details: Homo sapiens; 10 μM; RXF 393, Renal Cancer; read-out: Growth percent rate
# NCI-H322M = assay: NCI60 one-dose screen (10 μM), Non-small Cell Lung Cancer; assay type: cell-based; details: Homo sapiens, 10 μM, Non-small Cell Lung Cancer, read-out: Growth percent rate
# SF-539 = assay: NCI60 one-dose screen (10 μM), CNS Cancer; assay type: cell-based, human; details: Homo sapiens; 10 μM; SF-539, CNS Cancer; read-out: Growth percent rate
# EKVX = assay: NCI60 one-dose screen (10 μM), Non-small Cell Lung Cancer; assay type: cell-based; details: Homo sapiens, 10 μM, Non-small Cell Lung Cancer, read-out: Growth percent rate
# SN12C = assay: NCI60 one-dose screen (10 μM), Renal Cancer; assay type: cell-based; details: Homo sapiens, 10 μM, Renal Cancer, read-out: Growth percent rate
# OVCAR-8 = assay: NCI60 one-dose screen (10 μM), Ovarian Cancer; assay type: cell-based; details: Homo sapiens; 10 μM; OVCAR-8, Ovarian Cancer; read-out: Growth percent rate
# HT29 = assay: NCI60 one-dose screen (10 μM), Colon Cancer; assay type: cell-based; details: Homo sapiens, HT-29; 10 μM; HT29, Colon Cancer; read-out: Growth percent rate
# HS 578T = assay: NCI60 one-dose screen (10 μM), Breast Cancer; assay type: cell-based; details: Homo sapiens; 10 μM; HS 578T, Breast Cancer; read-out: Growth percent rate
# HL-60(TB) = assay: NCI60 one-dose screen (10 μM), Leukemia; assay type: cell-based; details: Homo sapiens; 10 μM; HL-60(TB), Leukemia; read-out: Growth percent rate
# SW-620 = assay: NCI60 one-dose screen (10 μM), Colon Cancer; assay type: cell-based; details: Homo sapiens; 10 μM; SW-620, Colon Cancer; read-out: Growth percent rate
# M14 = assay: NCI60 one-dose screen (10 μM), Melanoma; assay type: cell-based; details: Homo sapiens; 10 μM; M14, Melanoma; read-out: Growth percent rate
# SK-MEL-28 = assay: NCI60 one-dose screen (10 μM), Melanoma; assay type: cell-based; details: Homo sapiens; 10 μM; SK-MEL-28, Melanoma; read-out: Growth percent rate
# RPMI-8226 = assay: NCI60 one-dose screen (10 μM), Leukemia; assay type: cell-based; details: Homo sapiens; 10 μM; RPMI-8226, Leukemia; read-out: Growth percent rate
# NCI-H460 = assay: NCI60 one-dose screen (10 μM), Non-small Cell Lung Cancer; assay type: cell-based; details: Homo sapiens; 10 μM; NCI-H460, Non-small Cell Lung Cancer; read-out: Growth percent rate
# A498 = assay: NCI60 one-dose screen (10 μM), Renal Cancer; assay type: cell-based; details: Homo sapiens; 10 μM; A498, Renal Cancer; read-out: Growth percent rate
# CCRF-CEM = assay: NCI60 one-dose screen (10 μM), Leukemia; assay type: cell-based; details: Homo sapiens, 10 μM, Leukemia, read-out: Growth percent rate
# HCC-2998 = assay: NCI60 one-dose screen (10 μM), Colon Cancer; assay type: cell-based; details: Homo sapiens; 10 μM; HCC-2998, Colon Cancer; read-out: Growth percent rate
# COLO 205 = assay: NCI60 one-dose screen (10 μM), Colon Cancer; assay type: cell-based, human; details: Homo sapiens; 10 μM; COLO 205, Colon Cancer; read-out: Growth percent rate
# MCF7 = assay: NCI60 one-dose screen (10 μM), Breast Cancer; assay type: cell-based; details: Homo sapiens; 10 μM; MCF7, Breast Cancer; read-out: Growth percent rate
# HCT-15 = assay: NCI60 one-dose screen (10 μM), Colon Cancer; assay type: cell-based; details: Homo sapiens; 10 μM; HCT-15, Colon Cancer; read-out: Growth percent rate
# A549/ATCC = assay: NCI60 one-dose screen (10 μM), Non-small Cell Lung Cancer; assay type: cell-based; details: Homo sapiens; 10 μM; A549/ATCC, Non-small Cell Lung Cancer; read-out: Growth percent rate
# SK-MEL-5 = assay: NCI60 one-dose screen (10 μM), Melanoma; assay type: cell-based, human; details: Homo sapiens; 10 μM; SK-MEL-5, Melanoma; read-out: Growth percent rate
# U251 = assay: NCI60 one-dose screen (10 μM), CNS Cancer; assay type: cell-based; details: Homo sapiens, U-251; 10 μM; U251, CNS Cancer; read-out: Growth percent rate
# DU-145 = assay: NCI60 one-dose screen (10 μM), Prostate Cancer; assay type: cell-based; details: Homo sapiens; 10 μM; DU-145, Prostate Cancer; read-out: Growth percent rate
# IGROV1 = assay: NCI60 one-dose screen (10 μM), Ovarian Cancer; assay type: cell-based; details: Homo sapiens, IGROV-1; 10 μM; IGROV1, Ovarian Cancer; read-out: Growth percent rate
# [1] = system: 60 human tumor cell lines (NCI60); assay: NCI60 one-dose screen (10 μM), whole panel; assay type: cell-based
# MDA-MB-435 = assay: NCI60 one-dose screen (10 μM), Melanoma; assay type: cell-based; details: Homo sapiens; 10 μM; MDA-MB-435, Melanoma; read-out: Growth percent rate
# CAKI-1 = assay: NCI60 one-dose screen (10 μM), Renal Cancer; assay type: cell-based; details: Homo sapiens; 10 μM; CAKI-1, Renal Cancer; read-out: Growth percent rate
# SK-MEL-2 = assay: NCI60 one-dose screen (10 μM), Melanoma; assay type: cell-based; details: Homo sapiens; 10 μM; SK-MEL-2, Melanoma; read-out: Growth percent rate
# UACC-257 = assay: NCI60 one-dose screen (10 μM), Melanoma; assay type: cell-based; details: Homo sapiens; 10 μM; UACC-257, Melanoma; read-out: Growth percent rate
# HOP-62 = assay: NCI60 one-dose screen (10 μM), Non-small Cell Lung Cancer; assay type: cell-based; details: Homo sapiens; 10 μM; HOP-62, Non-small Cell Lung Cancer; read-out: Growth percent rate
# 786–0 = assay: NCI60 one-dose screen (10 μM), Renal Cancer; assay type: cell-based; details: Homo sapiens; 10 μM; 786-0, Renal Cancer; read-out: Growth percent rate
# NCI-H23 = assay: NCI60 one-dose screen (10 μM), Non-small Cell Lung Cancer; assay type: cell-based; details: Homo sapiens; 10 μM; NCI-H23, Non-small Cell Lung Cancer; read-out: Growth percent rate
# NCI-H522 = assay: as above; assay type: cell-based; details: Homo sapiens; 10 μM; NCI-H522, Non-small Cell Lung Cancer; read-out: Growth percent rate
# ACHN = assay: NCI60 one-dose screen (10 μM), Renal Cancer; assay type: cell-based; details: Homo sapiens, 10 μM, Renal Cancer, read-out: Growth percent rate
# K-562 = assay: NCI60 one-dose screen (10 μM), Leukemia; assay type: cell-based; details: Homo sapiens, K562; 10 μM; K-562, Leukemia; read-out: Growth percent rate
# SF-268 = assay: NCI60 one-dose screen (10 μM), CNS Cancer; assay type: cell-based; details: Homo sapiens; 10 μM; SF-268, CNS Cancer; read-out: Growth percent rate
# MOLT-4 = assay: NCI60 one-dose screen (10 μM), Leukemia; assay type: cell-based, human; details: Homo sapiens; 10 μM; MOLT-4, Leukemia; read-out: Growth percent rate
# SNB-75 = assay: NCI60 one-dose screen (10 μM), CNS Cancer; assay type: cell-based, human; details: Homo sapiens; 10 μM; SNB-75, CNS Cancer; read-out: Growth percent rate
smiles,measurement,setting,value
CCC12C=CCN3CCC4(c5cc(NC(=O)CN6CCN(C(c7ccc(F)cc7)c7ccc(F)cc7)CC6)c(OC)cc5N(C)C4C(O)(C(=O)OC)C1OC(C)=O)C32 (stereo not shown) [Compound 20],activity at 10 µM,OVCAR-3,36.5%
same,activity at 10 µM,HCT-116,27.9%
same,activity at 10 µM,OVCAR-4,31.4%
same,activity at 10 µM,RXF 393,-44%
same,activity at 10 µM,NCI-H322M,42.8%
same,activity at 10 µM,SF-539,-61.1%
same,activity at 10 µM,EKVX,16.2%
same,activity at 10 µM,SN12C,26.9%
same,activity at 10 µM,OVCAR-8,45.6%
same,activity at 10 µM,HT29,-40.8%
same,activity at 10 µM,HS 578T,15.5%
same,activity at 10 µM,HL-60(TB),-10.8%
same,activity at 10 µM,SW-620,34.2%
same,activity at 10 µM,M14,49.7%
same,activity at 10 µM,SK-MEL-28,51.2%
same,activity at 10 µM,RPMI-8226,-2.68%
same,activity at 10 µM,NCI-H460,17.3%
same,activity at 10 µM,A498,35.6%
same,activity at 10 µM,CCRF-CEM,-18.9%
same,activity at 10 µM,HCC-2998,3.93%
same,activity at 10 µM,COLO 205,-60.5%
same,activity at 10 µM,MCF7,5.47%
same,activity at 10 µM,HCT-15,18.3%
same,activity at 10 µM,A549/ATCC,31%
same,activity at 10 µM,SK-MEL-5,-76.2%
same,activity at 10 µM,U251,31.7%
same,activity at 10 µM,DU-145,37.1%
same,activity at 10 µM,IGROV1,44.9%
same,antiproliferative effect (in words),"[1]; 10 μM one-dose, NCI60","moderate antiproliferative activity on some colon, CNS, and melanoma cell lines"
same,activity at 10 µM,"[1]; 10 μM, mean over 60 human cancer cell lines, read-out: Growth percent rate, Mean",12.2%
same,activity at 10 µM,MDA-MB-435,22.2%
same,activity at 10 µM,CAKI-1,27.7%
same,activity at 10 µM,SK-MEL-2,-34.7%
same,activity at 10 µM,UACC-257,37.9%
same,activity at 10 µM,HOP-62,60.3%
same,activity at 10 µM,786–0,34%
same,activity at 10 µM,NCI-H23,38%
same,activity at 10 µM,NCI-H522,11%
same,activity at 10 µM,ACHN,11.4%
same,activity at 10 µM,K-562,17%
same,activity at 10 µM,SF-268,28.1%
same,activity at 10 µM,MOLT-4,1.17%
same,activity at 10 µM,SNB-75,-60.5%

# Source: paper PMC11277489, “Novel Piperazine Derivatives of Vindoline as Anticancer Agents” (International Journal of Molecular Sciences, 2024)
